Test results taken from ChEMBL document CHEMBL4028802, “DILIrank: the largest reference drug list ranked by the risk for developing drug-induced liver injury in humans” (Drug Discov Today, 2016).

Assays:
[1] = species: Homo sapiens; test: Liver toxicity in human assessed as induction of drug-induced liver injury by measuring verified drug-induced liver injury concern status
[2] = species: Homo sapiens; test: Liver toxicity in human assessed as induction of drug-induced liver injury by measuring severity class index
Throughout, for DILI severity class: key of the grades not given here.

Structure (SMILES)	DILI_Concern [1]	DILI_severity_class [2]
CCOC(=O)[C@H](CCc1ccccc1)N[C@@H](C)C(=O)N1Cc2cc(OC)c(OC)cc2C[C@H]1C(=O)O [MOEXIPRIL]	Ambiguous-Dili-Concern	3
CC(C)(O)c1ccccc1CC[C@@H](SCC1(CC(=O)O)CC1)c1cccc(/C=C/c2ccc3ccc(Cl)cc3n2)c1 [MONTELUKAST]	Less-Dili-Concern	3
CCOC(=O)Nc1ccc2c(c1)N(C(=O)CCN1CCOCC1)c1ccccc1S2 [MORICIZINE]	Ambiguous-Dili-Concern	5
CN1CC[C@]23c4c5ccc(O)c4O[C@H]2[C@@H](O)C=C[C@H]3[C@H]1C5 [MORPHINE]	No-Dili-Concern	0
COc1c(N2C[C@@H]3CCCN[C@@H]3C2)c(F)cc2c(=O)c(C(=O)O)cn(C3CC3)c12 [MOXIFLOXACIN]	Less-Dili-Concern	8
CC(=O)Oc1cc(C(C)C)c(OCCN(C)C)cc1C [MOXISYLYTE]	Most-Dili-Concern	8
COc1c(C)c2c(c(O)c1C/C=C(\C)CCC(=O)OCCN1CCOCC1)C(=O)OC2 [MYCOPHENOLATE MOFETIL]	Less-Dili-Concern	3
COc1c(C)c2c(c(O)c1C/C=C(\C)CCC(=O)O)C(=O)OC2 [MYCOPHENOLIC ACID]	Ambiguous-Dili-Concern	3
CCCCCCC(C)(C)c1cc(O)c2c(c1)OC(C)(C)C1CCC(=O)CC21 (stereo not given) [NABILONE]	No-Dili-Concern	0
COc1ccc2cc(CCC(C)=O)ccc2c1 [NABUMETONE]	Ambiguous-Dili-Concern	3
CC(C)(C)NCC(O)COc1cccc2c1CC(O)C(O)C2 (stereo not given) [NADOLOL]	Ambiguous-Dili-Concern	3
CCOc1ccc2ccccc2c1C(=O)N[C@@H]1C(=O)N2[C@@H]1SC(C)(C)[C@@H]2C(=O)O [NAFCILLIN]	Less-Dili-Concern	3
Oc1ccc2c3c1O[C@H]1[C@@H](O)CC[C@@]4(O)[C@@H](C2)N(CC2CCC2)CC[C@]314 [NALBUPHINE]	No-Dili-Concern	0
CCn1cc(C(=O)O)c(=O)c2ccc(C)nc21 [NALIDIXIC ACID]	Ambiguous-Dili-Concern	3
C=C1CC[C@@]2(O)[C@H]3Cc4ccc(O)c5c4[C@@]2(CCN3CC2CC2)[C@H]1O5.Cl [NALMEFENE HYDROCHLORIDE]	Ambiguous-Dili-Concern	3
C=CCN1CC[C@]23c4c5ccc(O)c4O[C@H]2C(=O)CC[C@@]3(O)[C@H]1C5 [NALOXONE]	No-Dili-Concern	0
O=C1CC[C@@]2(O)[C@H]3Cc4ccc(O)c5c4[C@@]2(CCN3CC2CC2)[C@H]1O5 [NALTREXONE]	Ambiguous-Dili-Concern	3
CCCCCCCCCC(=O)O[C@H]1CC[C@H]2[C@@H]3CCC4=CC(=O)CC[C@@H]4[C@H]3CC[C@]12C [NANDROLONE DECANOATE]	Most-Dili-Concern	7
COc1ccc2cc([C@H](C)C(=O)O)ccc2c1 [NAPROXEN]	Less-Dili-Concern	3
CC(C)[C@H]1CC[C@H](C(=O)N[C@H](Cc2ccccc2)C(=O)O)CC1 [NATEGLINIDE]	Ambiguous-Dili-Concern	3

Structure (SMILES)	DILI_Concern [1]	DILI_severity_class [2]
OC(CNCC(O)C1CCc2cc(F)ccc2O1)C1CCc2cc(F)ccc2O1 (stereo not given) [NEBIVOLOL]	Ambiguous-Dili-Concern	3
CCc1nn(CCCN2CCN(c3cccc(Cl)c3)CC2)c(=O)n1CCOc1ccccc1 [NEFAZODONE]	Most-Dili-Concern	8
COc1nc(N)nc2c1ncn2[C@@H]1O[C@H](CO)[C@@H](O)[C@@H]1O [NELARABINE]	Less-Dili-Concern	4
Cc1ccnc2c1NC(=O)c1cccnc1N2C1CC1 [NEVIRAPINE]	Most-Dili-Concern	8
O=C(CCNNC(=O)c1ccncc1)NCc1ccccc1 [NIALAMIDE]	Most-Dili-Concern	8
COC(=O)C1=C(C)NC(C)=C(C(=O)OCCN(C)Cc2ccccc2)C1c1cccc([N+](=O)[O-])c1 (stereo not given) [NICARDIPINE]	Ambiguous-Dili-Concern	3
COC(=O)C1=C(C)NC(C)=C(C(=O)OC)C1c1ccccc1[N+](=O)[O-] [NIFEDIPINE]	Less-Dili-Concern	3
Cc1cn(-c2cc(NC(=O)c3ccc(C)c(Nc4nccc(-c5cccnc5)n4)c3)cc(C(F)(F)F)c2)cn1 [NILOTINIB]	Ambiguous-Dili-Concern	4
CC1(C)NC(=O)N(c2ccc([N+](=O)[O-])c(C(F)(F)F)c2)C1=O [NILUTAMIDE]	Most-Dili-Concern	8
CS(=O)(=O)Nc1ccc([N+](=O)[O-])cc1Oc1ccccc1 [NIMESULIDE]	Most-Dili-Concern	8
COCCOC(=O)C1=C(C)NC(C)=C(C(=O)OC(C)C)C1c1cccc([N+](=O)[O-])c1 (stereo not given) [NIMODIPINE]	Ambiguous-Dili-Concern	3
CN(C)Cc1ccc(CSCCN/C(=C\[N+](=O)[O-])NCc2ccc3c(c2)OCO3)o1 [NIPEROTIDINE]	Most-Dili-Concern	8
COC(=O)C1=C(C)NC(C)=C(C(=O)OCC(C)C)C1c1ccccc1[N+](=O)[O-] (stereo not given) [NISOLDIPINE]	Ambiguous-Dili-Concern	3
CC(=O)Oc1ccccc1C(=O)Nc1ncc([N+](=O)[O-])s1 [NITAZOXANIDE]	No-Dili-Concern	0
O=C1CCCC(=O)C1C(=O)c1ccc(C(F)(F)F)cc1[N+](=O)[O-] [NITISINONE]	Ambiguous-Dili-Concern	7
Cc1nc([N+](=O)[O-])cn1-c1ccc([N+](=O)[O-])cc1 [NITREFAZOLE]	Most-Dili-Concern	8
O=C1CN(/N=C/c2ccc([N+](=O)[O-])o2)C(=O)N1 [NITROFURANTOIN]	Most-Dili-Concern	8
O=[N+]([O-])OCC(CO[N+](=O)[O-])O[N+](=O)[O-] [NITROGLYCERIN]	No-Dili-Concern	0
CNC(=C[N+](=O)[O-])NCCSCc1csc(CN(C)C)n1 [NIZATIDINE]	Less-Dili-Concern	5
CN1Cc2c(N)cccc2C(c2ccccc2)C1 (stereo not given) [NOMIFENSINE]	Most-Dili-Concern	8

Structure (SMILES)	DILI_Concern [1]	DILI_severity_class [2]
NC[C@H](O)c1ccc(O)c(O)c1 [NOREPINEPHRINE]	No-Dili-Concern	0
CCn1cc(C(=O)O)c(=O)c2cc(F)c(N3CCNCC3)cc21 [NORFLOXACIN]	Less-Dili-Concern	3
CNCCC=C1c2ccccc2CCc2ccccc21 [NORTRIPTYLINE]	Most-Dili-Concern	8
C[C@@H](O)[C@@H]1NC(=O)[C@H](CCCCN)NC(=O)[C@@H](Cc2c[nH]c3ccccc23)NC(=O)[C@H](Cc2ccccc2)NC(=O)[C@@H](NC(=O)[C@H](N)Cc2ccccc2)CSSC[C@@H](C(=O)N[C@H](CO)[C@@H](C)O)NC1=O [OCTREOTIDE]	Less-Dili-Concern	2
CC1COc2c(N3CCN(C)CC3)c(F)cc3c(=O)c(C(=O)O)cn1c23 (stereo not given) [OFLOXACIN]	Less-Dili-Concern	3
Cc1cc2c(s1)Nc1ccccc1N=C2N1CCN(C)CC1 [OLANZAPINE]	Less-Dili-Concern	3
CCCc1nc(C(C)(C)O)c(C(=O)OCc2oc(=O)oc2C)n1Cc1ccc(-c2ccccc2-c2nnn[nH]2)cc1 [OLMESARTAN MEDOXOMIL]	Ambiguous-Dili-Concern	4
O=C(O)c1cc(/N=N/c2ccc(O)c(C(=O)O)c2)ccc1O [OLSALAZINE]	Less-Dili-Concern	8
COc1ccc2[nH]c([S+]([O-])Cc3ncc(C)c(OC)c3C)nc2c1 (stereo not given) [OMEPRAZOLE]	Less-Dili-Concern	4
Cc1nccn1CC1CCc2c(c3ccccc3n2C)C1=O (stereo not given) [ONDANSETRON]	Less-Dili-Concern	7
CCCCCCCCCCC[C@@H](C[C@@H]1OC(=O)[C@H]1CCCCCC)OC(=O)[C@H](CC(C)C)NC=O [ORLISTAT]	Most-Dili-Concern	8
Cc1ccccc1C(OCCN(C)C)c1ccccc1 (stereo not given) [ORPHENADRINE]	No-Dili-Concern	0
CCOC(=O)C1=C[C@@H](OC(CC)CC)[C@H](NC(C)=O)[C@@H](N)C1 [OSELTAMIVIR]	Ambiguous-Dili-Concern	3
Cc1onc(-c2ccccc2)c1C(=O)N[C@@H]1C(=O)N2[C@@H]1SC(C)(C)[C@@H]2C(=O)O [OXACILLIN]	Less-Dili-Concern	3
C[C@]12COC(=O)C[C@@H]1CC[C@@H]1[C@@H]2CC[C@@]2(C)[C@H]1CC[C@]2(C)O [OXANDROLONE]	Most-Dili-Concern	8
O=C(O)CCc1nc(-c2ccccc2)c(-c2ccccc2)o1 [OXAPROZIN]	Less-Dili-Concern	3
O=C1Nc2ccc(Cl)cc2C(c2ccccc2)=NC1O (stereo not given) [OXAZEPAM]	Ambiguous-Dili-Concern	5
NC(=O)N1c2ccccc2CC(=O)c2ccccc21 [OXCARBAZEPINE]	Less-Dili-Concern	3
O=C(O)CCCO [OXYBATE]	No-Dili-Concern	0
CCN(CC)CC#CCOC(=O)C(O)(c1ccccc1)C1CCCCC1 (stereo not given) [OXYBUTYNIN]	No-Dili-Concern	0
